Molecules are shown by their SMILES.

This assay has as its target T1, HscFRS (Homo sapiens, UniProt Q9Y285).
T1 sequence (Q9Y285 1-508): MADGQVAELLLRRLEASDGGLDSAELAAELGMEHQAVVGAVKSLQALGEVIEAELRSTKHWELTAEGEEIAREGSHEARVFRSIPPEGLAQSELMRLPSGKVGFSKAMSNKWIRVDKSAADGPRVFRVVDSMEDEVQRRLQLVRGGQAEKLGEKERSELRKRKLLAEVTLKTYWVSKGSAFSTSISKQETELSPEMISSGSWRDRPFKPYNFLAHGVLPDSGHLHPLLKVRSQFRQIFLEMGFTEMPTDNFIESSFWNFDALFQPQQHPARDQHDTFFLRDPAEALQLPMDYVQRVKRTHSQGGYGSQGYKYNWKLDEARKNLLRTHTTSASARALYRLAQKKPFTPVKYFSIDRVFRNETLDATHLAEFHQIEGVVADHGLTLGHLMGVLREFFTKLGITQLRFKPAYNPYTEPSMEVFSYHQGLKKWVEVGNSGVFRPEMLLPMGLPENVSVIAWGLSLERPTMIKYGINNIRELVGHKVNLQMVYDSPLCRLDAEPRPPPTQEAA
T1 sequence (Q9NSD9 1-589 partner): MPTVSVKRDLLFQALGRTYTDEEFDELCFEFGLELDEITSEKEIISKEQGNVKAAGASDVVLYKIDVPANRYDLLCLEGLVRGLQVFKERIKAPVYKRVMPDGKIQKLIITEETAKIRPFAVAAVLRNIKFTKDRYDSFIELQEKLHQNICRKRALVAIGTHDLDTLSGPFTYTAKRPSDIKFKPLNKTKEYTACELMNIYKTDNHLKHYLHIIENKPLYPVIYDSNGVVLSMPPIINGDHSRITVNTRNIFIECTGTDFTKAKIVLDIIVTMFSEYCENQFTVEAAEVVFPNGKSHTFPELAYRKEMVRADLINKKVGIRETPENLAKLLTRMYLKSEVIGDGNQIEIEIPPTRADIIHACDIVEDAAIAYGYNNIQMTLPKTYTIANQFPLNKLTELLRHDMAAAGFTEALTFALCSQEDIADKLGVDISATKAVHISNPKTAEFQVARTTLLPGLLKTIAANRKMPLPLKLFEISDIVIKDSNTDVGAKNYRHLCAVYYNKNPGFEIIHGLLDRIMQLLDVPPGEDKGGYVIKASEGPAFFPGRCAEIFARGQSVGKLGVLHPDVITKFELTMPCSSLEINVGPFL
Description: malachite green-based aminoacylation assay, HscFRS. It counts as biochemical. The following applies: aminoacylation activity. The text has this: EC50 assays were run as described in Int'l Pub Nos. WO 2015070204, WO 2018175385, and Kato, N, et al. Nature 538 (2016): 344-349, which are hereby incorporated by reference in its entirety. The inhibition of the aminoacylation activity of Pf (Plasmodium falciparum), Pv (Plasmodium vivax), Hs (Human) and Pf-Mut (L550V) cFRS enzymes by Compound 1 are illustrated in FIG. 1.
The enzymatic activity of purified heterodimeric PfcFRS using malachite green-based aminoacylation assays with substrates L-Phe and ATP was also measured as described in Cestari, I. et al., J Biomol. Screen. 18 (2013): 490-497 and Kato, N, et al. Nature 538 (2016): 344-349, which are hereby incorporated by reference in its entirety. […] Enzymatic reactions (50 μl total volume) were performed in clear, flat-bottomed, 96-well plates (Costar 96-well standard microplates). The reaction mixture was incubated for 2 h at 37° C. The reaction was stopped by adding 12.5 μl of malachite green solution to the reaction mixture and levels of inorganic phosphate (Pi) were detected after incubation of 5 min at room temperature. Absorbance was the measured at 620 nm using a Spectramax M2 (Molecular Devices). Reactions without FRS enzyme were performed as background controls, values of which were subtracted from the reactions with enzyme. […]

For orientation: IC50 means the concentration at which inhibition is half-maximal. The low end stands for greater potency, the high end for weaker potency. With `COC[C@@H]1[C@H](c2ccc(C#Cc3ccccc3)cc2)[C@@H]2CN(C(=O)Nc3ccc(OC4CC4)cc3)C[C@@H](O)[C@@H](O)CN12` [Compound 1, (3S,4R,8R,9R,10S)—N-(4-cyclopropoxyphenyl)-3,4-dihydroxy-10-(methoxymethyl)-9-(4-(phenylethynyl)phenyl)-1,6-diazabicyclo[6.2.0]decane-6-carboxamide], the IC50 stood at 12 µM. That is a double-digit micromolar value.
